# From ChEMBL document CHEMBL1614632, “Trend analysis of a database of intravenous pharmacokinetic parameters in humans for 670 drug compounds” (Drug Metab Dispos, 2008)
# Legend:
# clinical [1] = details: human, in vivo, iv, CL
# clinical [2] = details: human, in vivo, iv, Vdss
# clinical [3] = details: human, in vivo, iv, t1/2
# clinical [4] = details: human, in vivo, iv
SMILES,clearance (clinical [1]),Vd (clinical [2]),half-life (clinical [3]),MRT (clinical [4])
CC(C)NCC(O)COc1ccc(COCCOC(C)C)cc1 (stereo not given) [BISOPROLOL],3.7 mL/min/kg,2.4 L/kg,10 h,–
CC1CCCC(C)N1CCCC(O)(c1ccccc1)c1ccccn1 (stereo not given) [PIRMENOL],1.8 mL/min/kg,1.4 L/kg,8.4 h,13 h
CCN(CC)CCNC(=O)c1ccc(NS(C)(=O)=O)cc1 [SEMATILIDE],3.7 mL/min/kg,0.82 L/kg,3.8 h,3.7 h
N=C(N)NC(=O)Cc1c(Cl)cccc1Cl [GUANFACINE],4.5 mL/min/kg,5.6 L/kg,15 h,22 h
CN(C)[C@@H]1C(O)=C(C(N)=O)C(=O)[C@@]2(O)C(O)=C3C(=O)c4c(O)ccc(Cl)c4[C@@](C)(O)[C@H]3C[C@@H]12 [CHLORTETRACYCLINE],2 mL/min/kg,0.9 L/kg,7 h,7.4 h
CNS(=O)(=O)CCc1ccc2[nH]cc(C3CCN(C)CC3)c2c1,6.6 mL/min/kg,2.4 L/kg,6.6 h,6.1 h
COCc1c(C(C)C)nc(C(C)C)c(/C=C/[C@@H](O)C[C@@H](O)CC(=O)O)c1-c1ccc(F)cc1 [CERIVASTATIN],2.9 mL/min/kg,0.33 L/kg,1.8 h,1.8 h
O=c1[nH]c2ccccc2n1CCCN1CCC(n2c(=O)[nH]c3cc(Cl)ccc32)CC1 [DOMPERIDONE],9.5 mL/min/kg,3.4 L/kg,–,6 h
Nc1ccn(C[C@@H](CO)OCP(=O)(O)O)c(=O)n1.O.O [CIDOFOVIR],2.5 mL/min/kg,0.49 L/kg,2.6 h,3.3 h
O=C1CN=C(c2ccccc2)c2cc([N+](=O)[O-])ccc2N1 [NITRAZEPAM],0.86 mL/min/kg,1.7 L/kg,26 h,33 h
Cn1c(=O)c2c(ncn2CC(O)CO)n(C)c1=O (stereo not given) [DYPHYLLINE],4.8 mL/min/kg,0.42 L/kg,1.7 h,1.5 h
CN(C)/N=N/c1ccc(C(=O)O)cc1,1.3 mL/min/kg,0.25 L/kg,2.5 h,3 h
CC1=C(C(=O)O)N2C(=O)[C@@H](NC(=O)[C@H](N)C3=CCC=CC3)[C@H]2SC1 [CEPHRADINE],3.3 mL/min/kg,0.21 L/kg,0.85 h,1.1 h
CC(C)[C@H]1CC[C@H](C(=O)N[C@H](Cc2ccccc2)C(=O)O)CC1 [NATEGLINIDE],1.8 mL/min/kg,0.15 L/kg,1.5 h,1.4 h
CC1(C)S[C@@H]2[C@H](/N=C/N3CCCCCC3)C(=O)N2[C@H]1C(=O)O [AMDINOCILLIN],6.3 mL/min/kg,0.37 L/kg,1.1 h,1 h
Cn1cc[nH]c1=S [METHIMAZOLE],3.7 mL/min/kg,0.86 L/kg,2.4 h,3.8 h
COc1cccc(C2(O)CCCCC2CN(C)C)c1 (stereo not given) [TRAMADOL],6.5 mL/min/kg,2.8 L/kg,5.8 h,7.2 h
CCOc1ccccc1OC(c1ccccc1)C1CNCCO1 (stereo not given) [REBOXETINE],0.82 mL/min/kg,0.65 L/kg,10 h,13 h
CN1CCN(CCCN2c3ccccc3Sc3ccc(Cl)cc32)CC1 [PROCHLORPERAZINE],16 mL/min/kg,22 L/kg,9 h,23 h
Cn1c(=O)c2c(ncn2C)n(C)c1=O [CAFFEINE],1.4 mL/min/kg,0.63 L/kg,4.9 h,7.5 h
CC(=O)N[C@H]1[C@H]([C@H](O)[C@H](O)CO)OC(C(=O)O)=C[C@@H]1N=C(N)N [ZANAMIVIR],1.6 mL/min/kg,0.23 L/kg,1.7 h,2.4 h
CC1=C(CO)C2=C(C)C3(CC3)[C@@](C)(O)C(=O)C2=C1 [IROFULVEN],140 mL/min/kg,3.1 L/kg,0.3 h,0.4 h
Cc1cccc(Nc2ccncc2S(=O)(=O)NC(=O)NC(C)C)c1 [TORSEMIDE],0.53 mL/min/kg,0.21 L/kg,5.1 h,6.6 h
CN(C)C(=O)Oc1cc(OC(=O)N(C)C)cc(C(O)CNC(C)(C)C)c1 (stereo not given) [BAMBUTEROL],18 mL/min/kg,1.6 L/kg,2.6 h,1.4 h
CN(Cc1cnc2nc(N)nc(N)c2n1)c1ccc(C(=O)N[C@@H](CCC(=O)O)C(=O)O)cc1 [METHOTREXATE],2.1 mL/min/kg,0.43 L/kg,–,3.4 h
O=c1n(CCCN2CCN(c3cccc(Cl)c3)CC2)nc2ccccn12 [TRAZODONE],1.4 mL/min/kg,0.52 L/kg,7.3 h,6.2 h
COC(=O)O[C@@]12CO[C@@H]1C[C@H](O)[C@@]1(C)C(=O)[C@H](OC(C)=O)C3=C(C)[C@@H](OC(=O)[C@H](O)[C@@H](NC(=O)c4ccccc4)c4ccccc4)C[C@@](O)([C@@H](OC(=O)c4ccccc4)[C@H]21)C3(C)C [BMS-188797],8.6 mL/min/kg,6.9 L/kg,–,13 h

SMILES,clearance (clinical [1]),Vd (clinical [2]),half-life (clinical [3]),MRT (clinical [4])
CN(C)CCCN1c2ccccc2CCc2ccc(Cl)cc21 [CLOMIPRAMINE],8.2 mL/min/kg,13 L/kg,–,26 h
CC[C@H]1OC(=O)[C@H](C)[C@@H](O[C@H]2C[C@@](C)(OC)[C@@H](O)[C@H](C)O2)[C@H](C)[C@@H](O[C@@H]2O[C@H](C)C[C@H](N(C)C)[C@H]2O)[C@](C)(O)C[C@@H](C)CN(C)[C@H](C)[C@@H](O)[C@]1(C)O [AZITHROMYCIN],10 mL/min/kg,–,69 h,57 h
CN(C)CCC(c1ccc(Cl)cc1)c1ccccn1 (stereo not given) [CHLORPHENIRAMINE],2.5 mL/min/kg,3.3 L/kg,–,22 h
CCOC(=O)c1ncn2c1CN(C)C(=O)c1cc(F)ccc1-2 [FLUMAZENIL],16 mL/min/kg,–,0.78 h,1 h
CN1CCC[C@H]1c1cccnc1 [NICOTINE],18 mL/min/kg,–,2 h,2.4 h
O=c1[nH]cnc2c1ncn2[C@H]1CC[C@@H](CO)O1 [DIDANOSINE],11 mL/min/kg,–,1.4 h,1.2 h
CCC1=C(C)CN(C(=O)NCCc2ccc(S(=O)(=O)NC(=O)N[C@H]3CC[C@H](C)CC3)cc2)C1=O [GLIMEPIRIDE],0.5 mL/min/kg,0.19 L/kg,9.95 h,–
O=C(N[C@H](CO)[C@H](O)c1ccc([N+](=O)[O-])cc1)C(Cl)Cl [CHLORAMPHENICOL],2.4 mL/min/kg,–,4.6 h,6.5 h
CCc1nn(CCCN2CCN(c3cccc(Cl)c3)CC2)c(=O)n1CCOc1ccccc1 [NEFAZODONE],7.5 mL/min/kg,–,1.2 h,1.1 h
CN1C(C(=O)Nc2ccccn2)=C(O)c2sccc2S1(=O)=O [TENOXICAM],0.03 mL/min/kg,–,67 h,92 h
NC12CC3CC(CC(C3)C1)C2 [AMANTADINE],4.8 mL/min/kg,–,16 h,23 h
NCC1(CC(=O)O)CCCCC1 [GABAPENTIN],1.7 mL/min/kg,0.71 L/kg,–,7 h
O=C1Nc2ccc(Cl)cc2C(c2ccccc2Cl)=NC1O (stereo not given) [LORAZEPAM],1 mL/min/kg,–,17 h,22 h
C=CCc1ccccc1OCC(O)CNC(C)C (stereo not given) [ALPRENOLOL],15 mL/min/kg,–,2.5 h,3.6 h
C[C@@H](O)[C@H]1C(=O)N2C(C(=O)O)=C(SCCN=CN)C[C@H]12 [IMIPENEM ANHYDROUS],3 mL/min/kg,–,0.95 h,1.3 h
CC[C@H](C)C(=O)O[C@H]1C[C@H](O)C=C2C=C[C@H](C)[C@H](CC[C@@H](O)C[C@@H](O)CC(=O)O)[C@H]21 [PRAVASTATIN],14 mL/min/kg,0.46 L/kg,0.78 h,–
C[C@H](CCc1ccccc1)NC[C@H](O)c1ccc(O)c(C(N)=O)c1 [DILEVALOL],29 mL/min/kg,–,3.3 h,2.8 h
C[C@]12CC[C@@H]3c4ccc(O)cc4CC[C@H]3[C@@H]1CC[C@@H]2O [ESTRADIOL],30 mL/min/kg,–,1.7 h,0.7 h
CN1CCN2c3ncccc3Cc3ccccc3C2C1 (stereo not given) [MIRTAZAPINE],8 mL/min/kg,4.2 L/kg,–,8.8 h
CCC(C)n1ncn(-c2ccc(N3CCN(c4ccc(OCC5COC(Cn6cncn6)(c6ccc(Cl)cc6Cl)O5)cc4)CC3)cc2)c1=O (stereo not given) [ITRACONAZOLE],5.1 mL/min/kg,7.4 L/kg,25 h,–
O=C(O)P(=O)(O)O [FOSCARNET],2.1 mL/min/kg,0.5 L/kg,4.7 h,–
CCCC(CCC)C(=O)O [VALPROIC ACID],0.16 mL/min/kg,0.14 L/kg,12 h,–
CNCC[C@@H](Oc1ccccc1C)c1ccccc1 [ATOMOXETINE],9.3 mL/min/kg,–,5.2 h,1.5 h
C=CC1=C(C(=O)O)N2C(=O)[C@@H](NC(=O)/C(=N\OCC(=O)O)c3csc(N)n3)[C@H]2SC1 [CEFIXIME],1 mL/min/kg,0.24 L/kg,3.2 h,–
COc1ccc(C(CN(C)C)C2(O)CCCCC2)cc1 (stereo not given) [VENLAFAXINE],14 mL/min/kg,–,5 h,5.2 h
CCN(CC)C(=O)/C(C#N)=C/c1cc(O)c(O)c([N+](=O)[O-])c1 [ENTACAPONE],12 mL/min/kg,0.27 L/kg,–,0.38 h
CO[C@H]1/C=C/O[C@@]2(C)Oc3c(C)c(O)c4c(O)c(c(/C=N/N5CCN(C)CC5)c(O)c4c3C2=O)NC(=O)/C(C)=C\C=C\[C@H](C)[C@H](O)[C@@H](C)[C@@H](O)[C@@H](C)[C@H](OC(C)=O)[C@@H]1C [RIFAMPIN],3.5 mL/min/kg,0.97 L/kg,–,4.6 h
